Test [1] has as its system EDA-containing fibronectin. Kind of test: Endogenous (cellular) fibronectin assembly assay, human fibroblasts (AH1F). The format is cell-based. The conditions noted are these: doses up to 500 nM; for IC50: endogenous EDA+-fibronectin, human fibroblasts, read-out: IC50 of fibronectin assembly inhibition. From the text:
(§1) Endogenous (cellular) fibronectin assembly assay: This immunochemical assay measures the ECM incorporation of EDA-containing fibronectin synthesized by human fibroblasts and human proximal tubular epithelial cells. Human proximal epithelial cells, HK-2 cells, were obtained from ATCC (CRL-2190). The EDA+ fibronectin is a splice variant synthesized and secreted by a variety of cells mostly during embryonic development and during wound healing, ECM remodeling, or fibrotic conditions in the adult. Fibroblasts (AH1F) were cultured in DMEM (Gibco) containing 10% fetal calf serum, and human proximal tubular epithelial cells (HK-2) were cultured in keratinocyte serum free medium (KSFM, containing pituitary extract and rEGF, Invitrogen/Thermo Fisher). Both media also contained 2.5 mM glutamine, 100 IU/ml penicillin, and 100 μg/ml streptomycin. Confluent cells were trypsinized and resuspended in DMEM containing 2% FCS in DMEM for AH1F cells or KSFM for HK-2 cells, at densities that allow delivery of 60,000 AH1F or 20,000 HK-2 cells in 90 μl per well in black-walled, flat transparent bottom 96-well plates. Cells were incubated for 2 h at 37° C. with 5% CO2 and checked microscopically for spreading and confluence. Peptides were then added in 10 μl volumes at 10-fold the desired final concentration. Cell monolayers in microplates were incubated overnight in a humidified 37° C., 5% CO2 chamber. After approximately 22 h, 10 μl of AlamarBlue® was added to the cell monolayers and incubated at 37° C. for 2 h to assess cell viability. Fluorescence of AlamarBlue® was read at 555 nm excitation and 585 nm emission. Microplates were washed twice with HBSS containing Ca^2+, Mg^2+ and 50 μl/well of 4% paraformaldehyde (PFA) in PBS was then added for 10 min at room temperature. […] Similar to the measurement of exogenous A488-FN fluorescence, A488-EDA fluorescence was read using microplate reader equipped with bottom-readout capabilities at 485 nm excitation and 525 nm emission. Fluorescence of wells to which A488-IgG was added, i.e., background green fluorescence from non-specific IgG binding and from the cell monolayer was subtracted from fluorescence values of wells incubated with A488-EDA. Data is presented for fibronectin fibrillogenesis or cell viability as percent of fluorescence values (AlexaFluor® 488 fluorescence or AlamarBlue®, respectively) for wells with no peptides.
(§2) To determine whether PEG-FUD retained its ability to inhibit fibronectin fibrillogenesis, PEG-FUD and FUD were compared in cell-based fibronectin matrix assembly assays. The ability of PEG-FUD to inhibit the incorporation of exogenous fibronectin derived from plasma and also of fibronectin endogenously produced by the cultured cells was measured, since fibrosis is likely to contain fibronectin from both sources. […]

Test [2] relates to UUO kidneys. In words: Unilateral Ureteral Obstruction (UUO) model of kidney fibrosis. The format is in vivo, mouse. To be noted: compared to saline-treated UUOs.
Test [3] relates to EDA-containing fibronectin. Kind of test: Endogenous (cellular) fibronectin assembly assay, human proximal tubular epithelial cells (HK-2). The format is cell-based. To be noted: doses up to 500 nM; for IC50: endogenous EDA+-fibronectin, human proximal tubular epithelial cells, read-out: IC50 of fibronectin assembly inhibition.
Text: as §1, §2

Test [4] concerns the target human plasma FN. Kind of test: Isothermal Titration calorimetry (ITC) of peptide binding to fibronectin. To be noted: pH 7.4 PBS, 25° C., triplicate. As to the method: Isothermal Titration calorimetry (ITC): ITC experiments were performed using a VP-ITC microcalorimeter (MicroCal, LLC) with a cell volume of 2.2 mL. In a typical experiment, the cell was filled with 1.4 mL of 2 μM human plasma FN and the syringe was filled with 1 mL of 28 μM FUD or PEG-FUD peptides. The temperature was set to 25° C. The titration experiment was performed in 39 injections (1×1, 4×4, and 34×8 μL) delivered in 120 sec intervals. Prior to injection, both FN and the peptides were dialyzed in separate dialysis bags overnight into the same PBS buffer (pH 7.4) solution. Routine analysis involved discarding of the first data point and subtraction of peptide into PBS buffer control run. Data were fit using one set of sites model Lavenberg-Marquardt nonlinear regression in Origin 7.0.
The binding of 10 kDa, 20 kDa, and 40 kDa PEG-FUD to FN was studied using Isothermal Titration calorimetry (ITC). This technique was used to determine the thermodynamic parameters as well as the binding constant (Kd) of the interaction. The peptide was injected into a human plasma FN solution in PBS at pH 7.4 and 25° C. in triplicate runs. […] A Kd of 6 (±3) nM was detected for FUD:FN. […] Similar entropy change of −65 (±3) cal/mol, −74 (±7) cal/mol, −66 (±7) cal/mol, and −73 (±2) and enthalpy change of −31 (±1) kcal/mol, −34 (±2) kcal/mol, −30 (±1) kcal/mol, and −32.5 (±0.5) kcal/mol were detected for the interaction of FUD and 10 kDa, 20 kDa, and 40 kDa PEG-FUD with FN, respectively. […] This observation is contrary to the expectation of PEG attachment diminishing a drug's affinity for its binding partner and presents an unexpected but desired feature of the PEG-FUD peptide.
Background: ITC needs no label: the signal is the heat of the interaction.

Where no end group is shown, it is not given here.

EDA-containing fibronectin, sequence (P02751 32-608 limits assumed): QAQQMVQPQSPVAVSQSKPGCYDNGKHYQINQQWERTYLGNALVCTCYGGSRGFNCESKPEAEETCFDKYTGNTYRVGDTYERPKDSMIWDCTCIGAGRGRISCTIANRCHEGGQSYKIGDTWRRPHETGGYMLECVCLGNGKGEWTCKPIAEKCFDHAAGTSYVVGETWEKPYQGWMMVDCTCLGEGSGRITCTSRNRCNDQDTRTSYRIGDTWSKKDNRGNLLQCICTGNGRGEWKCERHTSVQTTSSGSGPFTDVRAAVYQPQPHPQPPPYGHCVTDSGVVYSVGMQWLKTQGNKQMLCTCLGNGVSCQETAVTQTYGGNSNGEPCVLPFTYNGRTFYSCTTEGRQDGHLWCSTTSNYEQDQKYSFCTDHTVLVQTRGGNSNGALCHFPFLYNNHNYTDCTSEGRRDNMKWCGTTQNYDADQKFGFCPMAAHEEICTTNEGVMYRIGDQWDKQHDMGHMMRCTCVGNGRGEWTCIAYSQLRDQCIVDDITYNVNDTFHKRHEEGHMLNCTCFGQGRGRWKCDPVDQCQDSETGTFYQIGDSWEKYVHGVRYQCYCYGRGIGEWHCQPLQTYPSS
human plasma FN, sequence (P02751 32-608 limits assumed): as above

With “FUD: 49 amino acid FUD peptide, SEQ ID NO: 1, recombinantly expressed, His-tag removed; inhibitor of fibronectin fibrillogenesis (KDQSPLAGESGETEYITEVYGNQQNPVDIDKKLPNETGFSGNMVETEDT; human) [reference compound]”, in test [1], the “inhibition of assembly of cellular fibronectin by fibroblasts” value came to 70% and the IC50 was roughly 30 nM. In test [2], the “decrease of fibronectin in ECM fractions (immunoblot, normalized to H3)” value is given as “approximately 60%”. In test [3], the “inhibition of fibronectin assembly by proximal tubular epithelial cells” value is recorded as 50% and the IC50 is roughly 30 nM. Moreover, binding in test [4] was characterised by a dissociation constant (Kd) of 6 nM.
As to “PEG-FUD: PEGylated FUD prepared as in Example 1, PEG size not stated; approximately 27 kDa by mass spectrometry, likely the 20 kDa conjugate (KDQSPLAGESGETEYITEVYGNQQNPVDIDKKLPNETGFSGNMVETEDT; not fully specified (N-terminus); also: PEG size not given here)”, in test [1], the “inhibition of assembly of cellular fibronectin by fibroblasts” value came out at 70% and the IC50 is roughly 30 nM. In addition, the “decrease of fibronectin in ECM fractions (immunoblot, normalized to H3)” value in test [2] is “approximately 80%”. In addition, in test [3], the “inhibition of fibronectin assembly by proximal tubular epithelial cells” value stood at 50% and the IC50 is roughly 30 nM. For the same substance, the Kd in test [4] was roughly 10 nM.

As usually defined, the IC50 is the point on the concentration scale where inhibition reaches its midpoint. In general, Kd refers to the free concentration of one partner at which half of the binding sites on the other are occupied at equilibrium, for simple one-to-one binding.

For the origin of these results see US10828372B2, “Compositions and methods for the inhibition of fibrosis” (WISCONSIN ALUMNI RESEARCH FOUNDATION, priority 2017, dated 2020).
